In brackets after ≈: the same amount, converted by molar mass.
Experiments:
Format in all cases: cell-based
B. subtilis WT168 = assay: MIC by CLSI broth micro-dilution, B. subtilis WT168; conditions: Bacillus subtilis, read-out: Minimum inhibitory concentration
Method: Aminoxy acids were synthesized by the standard peptide coupling procedures. Minimum inhibitory concentration was determined using CLSI broth micro-dilution method in 96-wells microtitre plates. Minimum inhibitory concentration is defined as the lowest concentration of the compound that inhibits visible growth of the bacteria. All experiments were performed three times. 24 compounds including aminoxy acid monomers and dipeptides have been identified to show toxicity against multidrug resistant Staphylococcus aureus Mu3 and summarized in Table 1. The minimum inhibitory concentration of compound 8 and compound 35 on other gram-positive bacteria was also evaluated and summarized in Table 2. […] As shown in FIGS. 3A-3B there are no observable hemolysis for compound 8 and compound 35 towards human red blood cell.
Bacteria were streaked from the glycerol stock into BHI agar and were incubated overnight. Single colony was picked for the overnight culture in cation-adjusted Mueller Hinton broth (CAMH), LB or BHI. The overnight culture was sub-cultured and regrew to exponential phase for the experiment.
MIC was determined by CLSI broth micro-dilution method in 96-wells microtitre plates. […] Optical density was recorded by DTX 880 multimode detector (Beckman Coulter, California, US). […]

MIHA = assay: Mammalian cell cytotoxicity assay (MTT), MIHA; conditions: at 16 folded MIC (50 μM compound 8, 12.5 μM compound 35)
Method: FIGS. 2A-2B are the bar graphs showing the cytotoxicity of compound 8 (FIG. 2A) and compound 35 (FIG. 2B) towards mammalian cell NIH3T3, MDCK and MIHA. % survival is mean±S.D normalized to DMSO as the negative control of a representative experiment. Biological triplicates were conducted.
In the treated culture dish, cells were washed by PBS and then trypsinized. DMEM was added to quench the reaction. Cells were centrifuged and resuspended into fresh DMEM. Cells were then seeded in 96-well microtitre plate (100 μL, 5000 cells per well) for 24 hours before addition of compounds. The compounds were two-fold serial diluted by DMSO in a DMSO-compatible 96-well plate. 1 μL of compound in DMSO is transferred into the 96-well microtitre preparation plate containing 100 μL DMEM medium. The medium in culture plate was removed and compounds in preparation plate were transferred to culture plate. Equal volume of DMSO was used as negative control.
After 24 hours of incubation of cells, cell viability was measured by MTT assay. In MTT assay, 20 μL 5 mg/mL MTT solution in PBS was added to cell medium and cultured for 3 hours. The medium was then removed and 50 μL DMSO was added and cultured for 10 minutes. Absorbance at 595 nm was measured spectrophotometrically (Beckman Coulter DTX 880 Multimode Detector) and normalized to DMSO group. Biological replicates were performed.

human red blood cell = assay: Hemolysis assay; conditions: up to the highest concentration 100 μM, 2 hours, 37° C.
Method: FIGS. 3A-3B are diagrams showing the hemolysis ability of compound 8 (FIG. 3A) and compound 35 (FIG. 3B) towards human red blood cell. % Hemolysis were mean±S.D of biological triplicates normalized to 0.1% triton X-100 as positive control.
Citrate-phosphate-dextrose (CPD) human whole blood was obtained from Hong Kong Red Cross. Whole blood was centrifuged in 1000 rpm for 10 minutes to remove the upper plasma layer. The remaining portion was washed by 1×PBS 3 times or until the upper PBS layer was transparent. The upper PBS layer was removed and the lower blood cell layer was diluted into 2% in PBS. 200 μL 2% blood in PBS was then added to round-bottom 96-well plate. Compounds were subsequently added to 96-well plate on 1% DMSO concentration. After incubation in 37° C. for 2 hours, the round-bottom 96-well plate was centrifuged in 1000 rpm for 10 minutes. 50 μL supernatant was transferred to a flat-bottom 96-well plate. Absorbance at 405 nm was then measured by Beckman Coulter DTX 880 Multimode Detector. Biological replicates were performed.

[1] = tested on: Staphylococcus aureus Mu3 cytoplasmic calcium; assay: Calcium influx monitored by Fluo-4-AM; conditions: Fluo-4-AM fluorescence
Method: FIG. 12 is a line graph showing compound 8 can induce calcium influx into cytoplasm. The fluorescence of the Fluo-4-AM loaded in Staphylococcus aureus Mu3 was monitored for 10 minutes. The average of fluorescence in this period was assigned as F0. At t=10 minutes, different concentration of compound 8 was added to bacteria medium and then the fluorescence was further monitored for 40 minutes. Calcium ion transporter ionomycin was used as the positive control. The fluorescence Ft was normalized to initial fluorescence F0. Data represented the mean of biological triplicates.
Briefly, an overnight culture of MRSA Mu3 was sub-cultured 1:100 in fresh CAMH and regrown to exponential phase. The bacteria were washed twice and then re-suspended in PBS (OD595=0.5) containing 5 μM Fluo-4-AM. The bacteria were further incubated at 37° C. in dark for 2 hours before they were washed twice and resuspended into PBS containing 0.5 mM calcium chloride. 200 μL bacteria culture were then added into 96-well plate for each well. The plate was then pre-warmed and the fluorescence was monitored for 10 minutes for background measurement (excitation wavelength: 485 nm, emission wavelength: 535 nm). Fluorescence signal was recorded by Beckman Coulter DTX 880 Multimode Detector. Compounds were then added to 96-well plate and the fluorescence was further monitored for 5 minutes. […]

[2] = tested on: Staphylococcus aureus Mu3; assay: Antibacterial effect in combination with calcium channel blockers; conditions: 12.5 μM compound 8 (4×MIC), dose dependent
Method: (§1) Exponential phase Staphylococcus aureus Mu3 was treated with compound 8 (4×MIC) or combination with calcium channel blocker. Data were representative of mean±S.D. of four individual experiments with error bars. Statistical analysis was performed by one-way ANOVA with Dunnett's post-test to calculate p-values adjusted for multiple comparisons with initial bacteria inoculum as control condition (*p<0.05; **p<0.01; ***p<0.001).
as §1, with “Data” for “Exponential phase Staphylococcus aureus Mu3 was treated with compound 8 (4×MIC) or combination with calcium channel blocker. Data”

Structure (SMILES)	MIC (B. subtilis WT168) [µM]	toxicity against mammalian cell MIHA (MIHA)	hemolytic activity on human blood cell (human red blood cell)	calcium influx into cytoplasm [1]	antibacterial effect in combination with calcium channel blocker verapamil or benidipine [2]
CC(C)C[C@H](ONC(=O)[C@@H](COCc1ccccc1)ONC(=O)c1cc(C(F)(F)F)cc(C(F)(F)F)c1)C(=O)Nc1ccccc1 [Compound 8]	3.13 (≈ 2.05 µg/mL)	minimal toxicity	didn't have observable hemolytic activity	can induce calcium influx into cytoplasm in concentration dependent manner	calcium channel blockers can antagonize the antibacterial effect
CC(C)C[C@H](ONC(=O)[C@@H](COCc1ccccc1)ONC(=O)c1cc(C(F)(F)F)cc(C(F)(F)F)c1)C(=O)Nc1ccc2c(c1)OC(F)(F)O2 [Compound 35]	1.56 (≈ 1.15 µg/mL)	minimal toxicity	didn't have observable hemolytic activity		

Source: patent US20240315992A1, “AMINOXY ACID-BASED ANTIBACTERIAL COMPOUNDS AND METHODS THEREOF” (The University of Hong Kong, priority 2023, published 2024)
